Measurements published in publication PMC9415608, “Design, Synthesis and Biological Investigation of 2-Anilino Triazolopyrimidines as Tubulin Polymerization Inhibitors with Anticancer Activities” (Pharmaceuticals, 2022).
Like-named read-outs stand apart in the source and are kept apart here.

Columns and labels:
[1] = system: MDA-MB-231, HeLa, A549 and HT-29 cancer cell lines; assay: Antiproliferative activity stated across the panel of cancer cell lines; format: cell-based, human; settings: for IC50: Homo sapiens, read-out: IC50
Description: (§1) All the cell lines used in this paper were of human origin and purchased from the American Type Culture Collection (ATCC, Manassas, VA, USA). Colon adenocarcinoma (HT-29), non-small cell lung carcinoma (A549), cervix carcinoma (HeLa) and breast adenocarcinoma (MDA-MB-231) cells were grown in RPMI (HT29) or DMEM (A549, HeLa, MDA-MB-231) medium (Gibco, Milano, Italy). Both media were supplemented with 115 units/mL of penicillin G (Gibco, Milano, Italy), 115 μg/mL of streptomycin (Invitrogen, Milano, Italy) and 10% fetal bovine serum (Invitrogen, Milano, Italy). All cell lines were grown at 37 °C in a humidified 5% CO2 atmosphere. The cells were grown in 2 mL of complete medium.
(§2) Stock solutions were prepared for each compound by dissolving in DMSO at the final concentration of 10 mM.
(§3) The cells were seeded in 96-well plates at the appropriate density for each cell line. The respective cell line densities used for the antiproliferative assay were HeLa and HT29 5000 cells/well, A549 4000 cells/well and MDA-MB-231 7000 cells/well. The total volume of medium was 100 µL. After 24 h, the cells were treated by performing serial 5-fold dilutions of the tested compounds starting from a concentration of 10 μM. All experimental conditions were tested in triplicate for statistical analysis. After 72 h of incubation, 10 μL of 100 μg/mL resazurin solution was added to each well and the plate was re-incubated for 3–4 h. The fluorescence of the wells in each plate was monitored using a Spark 10M spectrophotometer (Tecan Group Ltd., Mannedorf, Switzerland) with a 535 nm excitation wavelength and a 600 nm emission wavelength.

[2] = system: HeLa; assay: In vitro cell growth inhibition, resazurin viability assay; format: cell-based, human; settings: for IC50: Homo sapiens, 72 h, resazurin, mean ± SE
Description: as §1, §2, §3

[3] = system: MDA-MB-231; assay: as above; format: cell-based, human; settings: Homo sapiens, MDA-MB-231; 72 h, resazurin; mean ± SE
Description: as §1, §2, §3

[4] = system: A549; assay: as above; format: cell-based, human; settings: Homo sapiens, A549; 72 h, resazurin; mean ± SE
Description: as §1, §2, §3

[5] = system: HT29; assay: as above; format: cell-based, human; settings: for IC50: Homo sapiens, HT-29, 72 h, resazurin, mean ± SE
Description: as §1, §2, §3

[6] = system: Bovine brain tubulin; assay: Inhibition of tubulin polymerization (turbidimetric assembly assay); format: biochemical; settings: tubulin at 10 μM, 20 min incubation; read-out: Tubulin Assembly IC50 ± SD
Description: (§4) Bovine brain tubulin was purified as described previously. To evaluate the effects of the compounds on tubulin assembly in vitro [80], varying concentrations were preincubated with 10 μM tubulin in 0.8 M monosodium glutamate (pH 6.6) at 30 °C and the reaction mixtures then cooled to 0 °C. After addition of GTP, the mixtures were transferred to 0 °C cuvettes in Beckman Coulter (Brea, CA, USA) DU-7400/DU-7500 recording spectrophotometers equipped with electronic temperature controllers and warmed to 30 °C, and the assembly of tubulin was observed turbidimetrically. […] Inhibition of colchicine binding to tubulin was measured as described before, except that the reaction mixtures contained 0.5 μM tubulin and 5 μM each of [^3H]colchicine and test compound. Only one DEAE-cellulose filter was used per sample, and filtration was by gravity.
(§5) Bovine brain tubulin (see ref. [79] for details of purification) was used to examine effects on tubulin polymerization and colchicine binding. Briefly, in the polymerization experiments, different compound concentrations were preincubated with 10 µM tubulin for 15 min at 30 °C and cooled on ice. After GTP was added to each reaction mixture, the samples were transferred to 0 °C cuvettes in recording spectrophotometers with electronic temperature controllers. The temperature was raised to 30 °C over about 30 s, and turbidity development was followed for 20 min at 350 nm. […] In the current studies, [^3H]colchicine (from American Radiolabeled Corp., St. Louis, MO) binding was measured after 10 min at 37 °C. Reaction mixtures contained 0.5 µM tubulin and 5.0 µM each of the [^3H]colchicine and the potential inhibitor, and a single DEAE-cellulose filter was used for each sample, with gravity filtration.

[7] = system: Bovine brain tubulin; assay: Inhibition of [3H]colchicine binding to tubulin; settings: tubulin 0.5 µM, [3H]colchicine 5 µM, tested compound 5 µM
Description: as §4, §5

[8] = stated for the panel of cancer cell lines as a whole

COc1cc(-c2ccnc3nc(Nc4ccccc4)nn23)cc(OC)c1OC [Compound 3a, N-Phenyl-7-(3,4,5-trimethoxyphenyl)-[1,2,4]triazolo[1,5-a]pyrimidin-2-amine] showed a melting point of 235 to 236 °C.
Work on COc1cc(-c2ccnc3nc(Nc4cccnc4)nn23)cc(OC)c1OC [Compound 3b, N-(Pyridin-3-yl)-7-(3,4,5-trimethoxyphenyl)-[1,2,4]triazolo[1,5-a]pyrimidin-2-amine] yielded an IC50 ([1]; against three of the four cancer cell lines (not HT-29)) greater than 10 µM, a melting point of 172 to 174 °C and an IC50 [2] greater than 10 µM. For the same compound, the IC50 [3] was greater than 10 µM, the IC50 [4] was greater than 10 µM and the “fold reduction in potency relative to 3a” value ([5]; HT-29 cells) was 3 fold. For the same compound, the IC50 [5] was 3.42 ± 0.41 µM.
In the case of COc1cc(-c2ccnc3nc(Nc4ccc(F)cc4)nn23)cc(OC)c1OC [Compound 3c, N-(4-Fluorophenyl)-7-(3,4,5-trimethoxyphenyl)-[1,2,4]triazolo[1,5-a]pyrimidin-2-amine], the melting point is reported as 234 to 235 °C, the IC50 [2] is reported as 5.44 ± 1.05 µM and the IC50 [3] is reported as greater than 10 µM. It also gave an IC50 [4] greater than 10 µM and an IC50 [5] greater than 10 µM.
In the case of COc1cc(-c2ccnc3nc(Nc4cccc(C)c4)nn23)cc(OC)c1OC [Compound 3e, N-(m-Tolyl)-7-(3,4,5-trimethoxyphenyl)-[1,2,4]triazolo[1,5-a]pyrimidin-2-amine], the “fold reduction in antiproliferative activity relative to 3d” value ([1]; range over cell lines) is reported as 10–46 fold, the melting point is reported as 229 to 230 °C and the IC50 [2] is reported as 0.39 ± 0.02 µM. The IC50 [3] was greater than 10 µM, the IC50 [4] was 1.87 ± 0.17 µM and the IC50 [5] was 1.38 ± 0.09 µM.
Compound COc1cc(-c2ccnc3nc(Nc4cc(C)cc(C)c4)nn23)cc(OC)c1OC [Compound 3g, N-(3,5-Dimethylphenyl)-7-(3,4,5-trimethoxyphenyl)-[1,2,4]triazolo[1,5-a]pyrimidin-2-amine] has an IC50 [1, 8] greater than 10 µM, a melting point of 228 to 230 °C and an IC50 [2] greater than 10 µM. The IC50 [3] was greater than 10 µM, the IC50 [4] was greater than 10 µM and the IC50 [5] was greater than 10 µM.
Work on CCCc1ccc(Nc2nc3nccc(-c4cc(OC)c(OC)c(OC)c4)n3n2)cc1 [Compound 3i, N-(4-Propylphenyl)-7-(3,4,5-trimethoxyphenyl)-[1,2,4]triazolo[1,5-a]pyrimidin-2-amine] yielded a melting point of 185 to 187 °C, an IC50 [2] greater than 10 µM and an IC50 [3] greater than 10 µM. For the same compound, the IC50 [4] was greater than 10 µM and the IC50 [5] was greater than 10 µM.
COc1cc(-c2ccnc3nc(Nc4ccc(C(C)C)cc4)nn23)cc(OC)c1OC [Compound 3j, N-(4-Isopropylphenyl)-7-(3,4,5-trimethoxyphenyl)-[1,2,4]triazolo[1,5-a]pyrimidin-2-amine] gave a melting point of 212 to 214 °C, an IC50 [2] of 4.7 ± 0.59 µM and an IC50 [3] greater than 10 µM. For the same compound, the IC50 [4] was greater than 10 µM and the IC50 [5] was greater than 10 µM.
Compound COc1ccc(Nc2nc3nccc(-c4cc(OC)c(OC)c(OC)c4)n3n2)cc1 [Compound 3k, N-(4-Methoxyphenyl)-7-(3,4,5-trimethoxyphenyl)-[1,2,4]triazolo[1,5-a]pyrimidin-2-amine] has a melting point of 213 to 215 °C.
Compound COc1cccc(Nc2nc3nccc(-c4cc(OC)c(OC)c(OC)c4)n3n2)c1 [Compound 3l, N-(3-Methoxyphenyl)-7-(3,4,5-trimethoxyphenyl)-[1,2,4]triazolo[1,5-a]pyrimidin-2-amine] has an IC50 [6] of 2.2 ± 0.2 µM, a melting point of 165 to 166 °C and an IC50 [2] of 0.44 ± 0.08 µM. The IC50 [3] was 1.76 ± 0.9 µM, the IC50 [4] was 0.76 ± 0.18 µM and the IC50 [5] was 0.76 ± 0.18 µM. For the same compound, the “Colchicine Binding % Inhibition ± SD” value [7] was 39 ± 5%.
Work on CCOc1ccc(Nc2nc3nccc(-c4cc(OC)c(OC)c(OC)c4)n3n2)cc1 [Compound 3m, N-(4-Ethoxyphenyl)-7-(3,4,5-trimethoxyphenyl)-[1,2,4]triazolo[1,5-a]pyrimidin-2-amine] yielded an IC50 [1, 8] greater than 10 µM, a melting point of 205 to 207 °C and an IC50 [2] greater than 10 µM. It also gave an IC50 [3] greater than 10 µM, an IC50 [4] greater than 10 µM and an IC50 [5] of 6.16 ± 0.97 µM.
In the case of COc1cc(-c2ccnc3nc(Nc4ccc5c(c4)OCO5)nn23)cc(OC)c1OC [Compound 3n, N-(Benzo[d][1,3]dioxol-5-yl)-7-(3,4,5-trimethoxyphenyl)-[1,2,4]triazolo[1,5-a]pyrimidin-2-amine], the “fold increase in antiproliferative activity relative to 3k” value ([1]; three of the four cancer cell lines) is reported as 1.5- to 4 fold, the melting point is reported as 234 to 236 °C and the IC50 [3] is reported as 6.1 ± 1.72 µM. It also gave an IC50 [4] of 1.44 ± 0.26 µM and an IC50 [5] of 1.39 ± 0.06 µM.
For COc1cc(-c2ccnc3nc(Nc4ccc5c(c4)OCCO5)nn23)cc(OC)c1OC [Compound 3o, N-(2,3-Dihydrobenzo[b][1,4]dioxin-6-yl)-7-(3,4,5-trimethoxyphenyl)-[1,2,4]triazolo[1,5-a]pyrimidin-2-amine], the melting point was 212 to 214 °C, the “fold more active than 3n” value ([2]; HeLa cells) was 3 fold and the IC50 [2] was 0.29 ± 0.031 µM. The IC50 [3] was greater than 10 µM, the IC50 [4] was 2.42 ± 0.12 µM and the “fold more active than 3n” value ([5]; HT-29 cells) was 2 fold. It also gave an IC50 [5] of 0.67 ± 0.12 µM.
In the case of COc1cc(-c2ccnc3nc(NCc4ccccc4)nn23)cc(OC)c1OC [Compound 3p, N-Benzyl-7-(3,4,5-trimethoxyphenyl)-[1,2,4]triazolo[1,5-a]pyrimidin-2-amine], the IC50 [1, 8] is reported as greater than 10 µM, the melting point is reported as 144 to 146 °C and the IC50 [2] is reported as greater than 10 µM. For the same compound, the IC50 [3] was 9.3 ± 0.22 µM, the IC50 [4] was greater than 10 µM and the IC50 [5] was greater than 10 µM.
Work on COc1cc(-c2ccnc3nc(NCc4ccc(Cl)cc4)nn23)cc(OC)c1OC [Compound 3q, N-(4-Chlorobenzyl)-7-(3,4,5-trimethoxyphenyl)-[1,2,4]triazolo[1,5-a]pyrimidin-2-amine] yielded a melting point of 171 to 173 °C, an IC50 [2] greater than 10 µM and an IC50 [3] greater than 10 µM. The IC50 [4] was greater than 10 µM and the IC50 [5] was greater than 10 µM.
Work on COc1cc(-c2ccnc3nc(NCc4ccc(C)cc4)nn23)cc(OC)c1OC [Compound 3r, N-(4-Methylbenzyl)-7-(3,4,5-trimethoxyphenyl)-[1,2,4]triazolo[1,5-a]pyrimidin-2-amine] yielded an IC50 [1, 8] greater than 10 µM, a melting point of 156 to 158 °C and an IC50 [2] greater than 10 µM. For the same compound, the IC50 [3] was greater than 10 µM, the IC50 [4] was greater than 10 µM and the IC50 [5] was greater than 10 µM.
With COc1ccc(CNc2nc3nccc(-c4cc(OC)c(OC)c(OC)c4)n3n2)cc1 [Compound 3s, N-(4-Methoxybenzyl)-7-(3,4,5-trimethoxyphenyl)-[1,2,4]triazolo[1,5-a]pyrimidin-2-amine] the IC50 [1, 8] was greater than 10 µM, the melting point was 190 to 192 °C and the IC50 [2] was greater than 10 µM. It also gave an IC50 [3] greater than 10 µM, an IC50 [4] greater than 10 µM and an IC50 [5] greater than 10 µM.
Work on COc1cc(-c2ccnc3nc(NCc4ccc5c(c4)OCO5)nn23)cc(OC)c1OC [Compound 3t, N-(Benzo[d][1,3]dioxol-5-ylmethyl)-7-(3,4,5-trimethoxyphenyl)-[1,2,4]triazolo[1,5-a]pyrimidin-2-amine] yielded an IC50 [1, 8] greater than 10 µM, a melting point of 233 to 235 °C and an IC50 [2] greater than 10 µM. For the same compound, the IC50 [3] was greater than 10 µM, the IC50 [4] was greater than 10 µM and the IC50 [5] was greater than 10 µM.
For COc1cc(-c2ccnc3nc(NCCc4ccccc4)nn23)cc(OC)c1OC [Compound 3u, N-Phenethyl-7-(3,4,5-trimethoxyphenyl)-[1,2,4]triazolo[1,5-a]pyrimidin-2-amine], the IC50 [1, 8] was greater than 10 µM, the melting point was 138 to 139 °C and the IC50 [2] was greater than 10 µM. The IC50 [3] was 8.7 ± 1.1 µM, the IC50 [4] was greater than 10 µM and the IC50 [5] was 6.74 ± 0.5 µM.
COc1cc(-c2ccnc3nc(NCCCc4ccccc4)nn23)cc(OC)c1OC [Compound 3v, N-(3-Phenylpropyl)-7-(3,4,5-trimethoxyphenyl)-[1,2,4]triazolo[1,5-a]pyrimidin-2-amine] gave an IC50 [1, 8] greater than 10 µM, a melting point of 98 to 100 °C and an IC50 [2] greater than 10 µM. It also gave an IC50 [3] greater than 10 µM, an IC50 [4] greater than 10 µM and an IC50 [5] greater than 10 µM.
